Columns and labels:
[1] = target: T1, NbUGT72AY1 (Nicotiana benthamiana, UniProt A0A8K1ZRH3); assay: UDP-Glo glucosyltransferase assay, purified enzyme (reactivation of substrate-inhibited enzyme); assay type: biochemical; design: N-terminal GST tag
T1 sequence (A0A8K1ZRH3 1-477): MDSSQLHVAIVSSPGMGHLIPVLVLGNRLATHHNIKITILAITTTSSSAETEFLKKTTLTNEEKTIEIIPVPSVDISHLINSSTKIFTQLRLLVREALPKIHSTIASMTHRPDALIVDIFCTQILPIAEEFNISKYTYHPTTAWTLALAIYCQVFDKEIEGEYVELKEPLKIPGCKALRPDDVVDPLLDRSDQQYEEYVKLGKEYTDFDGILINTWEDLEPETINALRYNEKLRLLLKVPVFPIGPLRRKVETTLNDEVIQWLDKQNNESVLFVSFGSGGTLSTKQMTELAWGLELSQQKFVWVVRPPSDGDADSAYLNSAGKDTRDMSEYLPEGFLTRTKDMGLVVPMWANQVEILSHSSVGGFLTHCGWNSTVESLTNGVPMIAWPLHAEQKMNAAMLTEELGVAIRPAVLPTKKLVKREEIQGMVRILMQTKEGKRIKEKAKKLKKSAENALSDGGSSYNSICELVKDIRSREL

[2] = target: T1, NbUGT72AY1; assay: HDX-MS; inhibition of UDPG glucohydrolase and relief of substrate inhibition (UDP-Glo, purified enzyme); assay type: binding
[3] = target: T1, NbUGT72AY1; assay: ITC ([…] stoichiometry); co-crystal structures; HDX-MS; enzyme kinetics; assay type: binding
[4] = target: T1, NbUGT72AY1; assay: HDX-MS; CD; inhibition of UDPG glucohydrolase and relief of substrate inhibition (UDP-Glo, purified enzyme); assay type: binding
[5] = target: T1, NbUGT72AY1; assay: X-ray co-crystal structure (ternary complex with scopoletin); assay type: binding

CC(C)=CCC/C(C)=C/C=C/C(C)=C/C=C/C(C)=C/C=C/C=C(C)/C=C/C=C(C)/C=C/C=C(\C)CCC=C(C)C [lycopene]
UDP-Glo glucosyltransferase assay, purified enzyme (reactivation of substrate-in) [1]: Even acyclic lycopene shows a concentration-dependent reactivation of the substrate-inhibited enzyme.

CC1=C(/C=C/C(C)=C/C=C/C(C)=C/C=C/C=C(C)/C=C/C=C(\C)C=O)C(C)(C)CCC1 [β-apo-8’-carotenal]
HDX-MS; inhibition of UDPG glucohydrolase and relief of substrate inhibition (UD) [2]: concentration-dependent reactivation of the substrate-inhibited enzyme by β-carotene, β-apo-8’-carotenal, and retinol was detected

COc1cc2ccc(=O)oc2cc1O [scopoletin]
Kd [3]: 4.5 ± 1.1 µM

CC1=C(/C=C/C(C)=C/C=C/C(C)=C/C=C/C=C(C)/C=C/C=C(C)/C=C/C2=C(C)CCCC2(C)C)C(C)(C)CCC1 [β-carotene]
HDX-MS; CD; inhibition of UDPG glucohydrolase and relief of substrate inhibition [4]: with β-carotene being the most potent in suppressing glucohydrolase activity in accordance with its strong inhibition of SI

O=c1ccn([C@@H]2O[C@H](COP(=O)(O)OP(=O)(O)O[C@H]3O[C@H](CO)[C@@H](O)[C@H](O)[C@H]3F)[C@@H](O)[C@H]2O)c(=O)[nH]1 [UDP2FG]
X-ray co-crystal structure (ternary complex with scopoletin) [5]: ternary complex V (NbUGT72AY1•scopoletin/UDP2FG: 9J9K) most of the protein residues are visible in the electron density maps

CC1=C(/C=C/C(C)=C/C=C/C(C)=C/CO)C(C)(C)CCC1 [retinol]
HDX-MS; inhibition of UDPG glucohydrolase and relief of substrate inhibition (UD) [2]: concentration-dependent reactivation of the substrate-inhibited enzyme by β-carotene, β-apo-8’-carotenal, and retinol was detected
